The experiment relates to adjuvant-induced polyarthritis. In words: adjuvant-induced polyarthritis syndrome in rats (paw volume). The format is in vivo. The note with it: Rattus norvegicus, 504 h, dose effecting 50 % inhibition of paw volume, oral, day before adjuvant and continued for 21 days, male Charles River-Wistar Lewis rats. As for the experimental part: The (6,11-dihydro-11-oxodibenz[b,e]oxepinyl)pentanols and derivatives thereof of the present invention are useful as antiarthritic agents due to their ability to specifically suppress arthritis-type inflammation in mammals. […] M. Perrone and F. D. Wood, Arthritis and Rheumatism, 2, 440 (1959).
Groups of 10 male Charles River-Wistar Lewis rats weighing 150 to 175 g were individually housed and maintained on a regular rat chow diet. Water was given ad libitum. The adjuvant was prepared by suspending 75 mg of Mycobacterium butyricum (Difeo Laboratories, Detroit, Michigan) in 10 ml of white paraffin oil with continuous stirring for 2 hrs at room temperature prior to administration. Test compounds are prepared by suspending the drug in water, adding one drop of Tween 80 per 10 ml of suspension, and homogenizing. The adjuvant suspension (0.1 ml) was injected into the footpad of the left hind paw of the rat. Test compound suspensions were administered orally (10 ml/kg) the day before adjuvant suspension injection and the administration was continued for 21 days. One group of ten rats was used for the test drug, standard, adjuvant-injected control and non-injected control. Control animals received vehicle (10 ml/kg). Three doses of test drug and one dose of standard preparation were used. Injected and non-injected paw volumes were determined on the day the adjuvant suspension was given, and in subsequent days thereafter (usually days 5, 10, 18 and 21) by the method of C. A. Wilson, et al., Proc. Soc. Exp. Biol. Med., 111 544 (1962).
The percent inhibition of paw volume (injected and non-injected hind paw) was calculated by the following formula: [formula] ED50-values, i.e., the dose at which the drug effects a 50 % inhibition of paw volume, were estimated by the method of J. T. Litchfield and F. Wilcoxon, J. Pharm. Exp. Thes., 96, 99 (1948), and statistically evaluated by means of the sudent "t" test.

The mark [1] stands for this setting: injected hind paw, read-out: ED50 (injected).
Setting [2] is: non-injected hind paw, read-out: ED50 (non-injected).

Like-named read-outs stand apart in the source and are kept apart here.

Regarding `CCCCC1C(=O)N(c2ccccc2)N(c2ccccc2)C1=O` [phenylbutazone], the ED50 (commonly the midpoint of the dose-response relation) runs as follows: under setting [1], 12 mg/kg; under setting [2], 6.8 mg/kg.

On to `CC(CCCO)c1ccc2c(c1)C(=O)c1ccccc1CO2` (stereo not shown) [4-(6,11-Dihydro-11-oxodibenz[b,e]oxepin-2-yl)pentanol], for which the ED50 worked out at 5.6 mg/kg under setting [1] and 3.9 mg/kg under setting [2].

Values taken from patent EP0160258A2, “(6,11-Dihydro-11-oxodibenz(bm,e)oxepinyl)pentanols, a process and intermediates for their preparation and their use as medicaments” (HOECHST-ROUSSEL PHARMACEUTICALS INCORPORATED, priority 1984, dated 1985).
